In ChEMBL document CHEMBL5649169 (ChemMedChem, 2018):

Assays:
[1] = target: Hepatoma-derived growth factor (Homo sapiens) (UniProt P51858)
[2] = target: Large ribosomal subunit protein uL14 (Homo sapiens) (UniProt P62829)
[3] = target: Serine/threonine-protein kinase 3 (Homo sapiens) (UniProt Q13188)
[4] = target: Katanin p60 ATPase-containing subunit A-like 2 (Homo sapiens) (UniProt Q8IYT4)
[5] = target: ATP-dependent 6-phosphofructokinase, liver type (Homo sapiens) (UniProt P17858)
Homo sapiens [6] = species on record: Homo sapiens
[7] = target: GTPase-activating protein and VPS9 domain-containing protein 1 (Homo sapiens) (UniProt Q14C86)
[8] = target: Coatomer subunit gamma-2 (Homo sapiens) (UniProt Q9UBF2)
[9] = target: Myosin light polypeptide 6 (Homo sapiens) (UniProt P60660)
[10] = target: Exportin-5 (Homo sapiens) (UniProt Q9HAV4)
[11] = target: AP-3 complex subunit sigma-1 (Homo sapiens) (UniProt Q92572)
[12] = target: Elongation factor 1-gamma (Homo sapiens) (UniProt P26641)
[13] = target: Adenosine 5'-monophosphoramidase HINT1 (Homo sapiens) (UniProt P49773)
[14] = target: AP-2 complex subunit mu (Homo sapiens) (UniProt Q96CW1)
[15] = target: T-complex protein 1 subunit gamma (Homo sapiens) (UniProt P49368)
[16] = target: H/ACA ribonucleoprotein complex subunit DKC1 (Homo sapiens) (UniProt O60832)
[17] = target: DAZ-associated protein 1 (Homo sapiens) (UniProt Q96EP5)
[18] = target: Ubiquitin carboxyl-terminal hydrolase 10 (Homo sapiens) (UniProt Q14694)
[19] = target: Enhancer of rudimentary homolog (Homo sapiens) (UniProt P84090)
[20] = target: Leucine-rich repeat flightless-interacting protein 1 (Homo sapiens) (UniProt Q32MZ4)
[21] = target: Fatty acyl-CoA reductase 1 (Homo sapiens) (UniProt Q8WVX9)
[22] = target: Small ribosomal subunit protein uS7m (Homo sapiens) (UniProt Q9Y2R9)
Cullin-3 (Homo sapiens) = Cullin-3 (Homo sapiens) (UniProt Q13618)
[23] = target: T-complex protein 1 subunit epsilon (Homo sapiens) (UniProt P48643)
[24] = target: Cell division cycle protein 23 homolog (Homo sapiens) (UniProt Q9UJX2)
[25] = target: PCI domain-containing protein 2 (Homo sapiens) (UniProt Q5JVF3)
[26] = target: Large ribosomal subunit protein eL27 (Homo sapiens) (UniProt P61353)
[27] = target: Sterol O-acyltransferase 1 (Homo sapiens) (UniProt P35610)
[28] = target: Small ribosomal subunit protein uS8 (Homo sapiens) (UniProt P62244)
[29] = target: Double-strand break repair protein MRE11 (Homo sapiens) (UniProt P49959)
[30] = target: ATP-dependent RNA helicase DDX3X (Homo sapiens) (UniProt O00571)
[31] = target: S-adenosylmethionine synthase isoform type-2 (Homo sapiens) (UniProt P31153)
Septin-9 (Homo sapiens) = Septin-9 (Homo sapiens) (UniProt Q9UHD8)
[32] = target: MMS19 nucleotide excision repair protein homolog (Homo sapiens) (UniProt Q96T76)
[33] = target: Ribosomal protein S6 kinase alpha-4 (Homo sapiens) (UniProt O75676)
[34] = target: Bromodomain adjacent to zinc finger domain protein 1A (Homo sapiens) (UniProt Q9NRL2)
[35] = target: Tyrosine-protein kinase ABL2 (Homo sapiens) (UniProt P42684)
[36] = target: Integrin beta-4 (Homo sapiens) (UniProt P16144)
[37] = target: Serine/threonine-protein phosphatase PGAM5, mitochondrial (Homo sapiens) (UniProt Q96HS1)
[38] = target: NADH dehydrogenase [ubiquinone] 1 beta subcomplex subunit 10 (Homo sapiens) (UniProt O96000)
Homo sapiens [39] = species on record: Homo sapiens; remark: listed apart in the source
[40] = target: Serine/threonine-protein kinase Nek7 (Homo sapiens) (UniProt Q8TDX7)
Homo sapiens [41] = species on record: Homo sapiens; remark: listed apart in the source
[42] = target: Heat shock protein HSP 90-beta (Homo sapiens) (UniProt P08238)
[43] = target: Prolyl 4-hydroxylase subunit alpha-1 (Homo sapiens) (UniProt P13674)
[44] = target: E3 ubiquitin-protein ligase UBR4 (Homo sapiens) (UniProt Q5T4S7)
[45] = target: Large ribosomal subunit protein uL1 (Homo sapiens) (UniProt P62906)
Further: assay method not described here.

Sequence of DAZ-associated protein 1 (Homo sapiens) (Q96EP5 whole entry): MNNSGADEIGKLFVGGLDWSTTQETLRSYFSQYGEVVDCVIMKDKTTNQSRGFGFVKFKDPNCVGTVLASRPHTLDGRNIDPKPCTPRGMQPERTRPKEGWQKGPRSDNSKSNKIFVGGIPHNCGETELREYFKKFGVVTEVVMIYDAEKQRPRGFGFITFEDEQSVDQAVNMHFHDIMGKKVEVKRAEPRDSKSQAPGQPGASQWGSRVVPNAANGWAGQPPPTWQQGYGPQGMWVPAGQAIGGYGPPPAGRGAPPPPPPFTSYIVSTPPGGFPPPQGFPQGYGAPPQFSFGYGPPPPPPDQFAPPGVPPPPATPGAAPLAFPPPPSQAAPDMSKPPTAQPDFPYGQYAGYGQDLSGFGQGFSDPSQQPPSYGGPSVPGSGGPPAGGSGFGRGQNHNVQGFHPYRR
Sequence of Katanin p60 ATPase-containing subunit A-like 2 (Homo sapiens) (Q8IYT4 whole entry): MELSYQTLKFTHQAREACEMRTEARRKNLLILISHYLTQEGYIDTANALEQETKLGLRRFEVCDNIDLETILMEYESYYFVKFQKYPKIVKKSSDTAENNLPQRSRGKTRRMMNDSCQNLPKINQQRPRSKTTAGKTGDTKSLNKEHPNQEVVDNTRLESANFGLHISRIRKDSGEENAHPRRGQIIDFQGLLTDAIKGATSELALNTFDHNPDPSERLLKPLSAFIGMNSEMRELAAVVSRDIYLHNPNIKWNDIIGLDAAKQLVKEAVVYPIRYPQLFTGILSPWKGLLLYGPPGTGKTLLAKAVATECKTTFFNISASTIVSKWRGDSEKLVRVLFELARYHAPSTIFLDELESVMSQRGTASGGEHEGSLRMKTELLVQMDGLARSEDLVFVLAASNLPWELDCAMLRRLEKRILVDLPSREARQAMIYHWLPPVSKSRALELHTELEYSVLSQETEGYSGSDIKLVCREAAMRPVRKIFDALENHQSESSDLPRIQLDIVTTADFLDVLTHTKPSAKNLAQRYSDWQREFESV
Sequence of T-complex protein 1 subunit gamma (Homo sapiens) (P49368 whole entry, one chain of several): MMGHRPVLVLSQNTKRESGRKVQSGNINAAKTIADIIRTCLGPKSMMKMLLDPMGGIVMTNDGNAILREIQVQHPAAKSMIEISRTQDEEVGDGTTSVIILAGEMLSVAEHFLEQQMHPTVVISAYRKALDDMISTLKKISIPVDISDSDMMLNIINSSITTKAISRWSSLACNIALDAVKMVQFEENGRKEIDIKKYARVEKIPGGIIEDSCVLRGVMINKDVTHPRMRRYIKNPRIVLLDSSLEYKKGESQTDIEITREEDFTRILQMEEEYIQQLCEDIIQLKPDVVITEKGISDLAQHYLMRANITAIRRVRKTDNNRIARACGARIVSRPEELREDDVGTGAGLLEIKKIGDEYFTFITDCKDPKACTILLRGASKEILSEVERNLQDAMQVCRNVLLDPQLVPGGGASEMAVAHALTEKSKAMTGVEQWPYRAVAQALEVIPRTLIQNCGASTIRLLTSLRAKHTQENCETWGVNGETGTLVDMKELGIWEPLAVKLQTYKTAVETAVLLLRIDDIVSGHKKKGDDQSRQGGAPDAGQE
Sequence of Enhancer of rudimentary homolog (Homo sapiens) (P84090 2-104 limits assumed): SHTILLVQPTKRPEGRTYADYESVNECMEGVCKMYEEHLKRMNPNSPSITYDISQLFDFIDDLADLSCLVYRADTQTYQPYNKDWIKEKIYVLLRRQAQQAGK
Sequence of Cullin-3 (Homo sapiens) (Q13618 whole entry): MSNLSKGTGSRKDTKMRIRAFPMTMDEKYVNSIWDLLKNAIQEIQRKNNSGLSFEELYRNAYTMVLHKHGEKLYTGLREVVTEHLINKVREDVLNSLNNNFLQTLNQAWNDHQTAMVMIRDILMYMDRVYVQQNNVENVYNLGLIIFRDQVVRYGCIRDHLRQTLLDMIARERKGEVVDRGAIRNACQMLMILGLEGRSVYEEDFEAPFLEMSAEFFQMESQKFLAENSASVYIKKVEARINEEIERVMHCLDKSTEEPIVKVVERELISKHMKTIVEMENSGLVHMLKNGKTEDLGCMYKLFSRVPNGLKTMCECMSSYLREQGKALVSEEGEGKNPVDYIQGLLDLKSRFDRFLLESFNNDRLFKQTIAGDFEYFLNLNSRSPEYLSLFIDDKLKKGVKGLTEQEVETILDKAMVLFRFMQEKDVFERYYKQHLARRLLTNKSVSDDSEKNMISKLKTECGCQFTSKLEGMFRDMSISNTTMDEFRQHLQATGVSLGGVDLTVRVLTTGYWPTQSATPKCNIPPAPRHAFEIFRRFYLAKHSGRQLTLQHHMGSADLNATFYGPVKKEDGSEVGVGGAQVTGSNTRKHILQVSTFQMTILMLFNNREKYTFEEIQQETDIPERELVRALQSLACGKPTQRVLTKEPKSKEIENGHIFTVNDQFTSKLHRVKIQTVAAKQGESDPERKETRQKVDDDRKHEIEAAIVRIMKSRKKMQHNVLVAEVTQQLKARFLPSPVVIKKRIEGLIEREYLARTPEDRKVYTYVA
Sequence of GTPase-activating protein and VPS9 domain-containing protein 1 (Homo sapiens) (Q14C86 whole entry, the tested form may be a part): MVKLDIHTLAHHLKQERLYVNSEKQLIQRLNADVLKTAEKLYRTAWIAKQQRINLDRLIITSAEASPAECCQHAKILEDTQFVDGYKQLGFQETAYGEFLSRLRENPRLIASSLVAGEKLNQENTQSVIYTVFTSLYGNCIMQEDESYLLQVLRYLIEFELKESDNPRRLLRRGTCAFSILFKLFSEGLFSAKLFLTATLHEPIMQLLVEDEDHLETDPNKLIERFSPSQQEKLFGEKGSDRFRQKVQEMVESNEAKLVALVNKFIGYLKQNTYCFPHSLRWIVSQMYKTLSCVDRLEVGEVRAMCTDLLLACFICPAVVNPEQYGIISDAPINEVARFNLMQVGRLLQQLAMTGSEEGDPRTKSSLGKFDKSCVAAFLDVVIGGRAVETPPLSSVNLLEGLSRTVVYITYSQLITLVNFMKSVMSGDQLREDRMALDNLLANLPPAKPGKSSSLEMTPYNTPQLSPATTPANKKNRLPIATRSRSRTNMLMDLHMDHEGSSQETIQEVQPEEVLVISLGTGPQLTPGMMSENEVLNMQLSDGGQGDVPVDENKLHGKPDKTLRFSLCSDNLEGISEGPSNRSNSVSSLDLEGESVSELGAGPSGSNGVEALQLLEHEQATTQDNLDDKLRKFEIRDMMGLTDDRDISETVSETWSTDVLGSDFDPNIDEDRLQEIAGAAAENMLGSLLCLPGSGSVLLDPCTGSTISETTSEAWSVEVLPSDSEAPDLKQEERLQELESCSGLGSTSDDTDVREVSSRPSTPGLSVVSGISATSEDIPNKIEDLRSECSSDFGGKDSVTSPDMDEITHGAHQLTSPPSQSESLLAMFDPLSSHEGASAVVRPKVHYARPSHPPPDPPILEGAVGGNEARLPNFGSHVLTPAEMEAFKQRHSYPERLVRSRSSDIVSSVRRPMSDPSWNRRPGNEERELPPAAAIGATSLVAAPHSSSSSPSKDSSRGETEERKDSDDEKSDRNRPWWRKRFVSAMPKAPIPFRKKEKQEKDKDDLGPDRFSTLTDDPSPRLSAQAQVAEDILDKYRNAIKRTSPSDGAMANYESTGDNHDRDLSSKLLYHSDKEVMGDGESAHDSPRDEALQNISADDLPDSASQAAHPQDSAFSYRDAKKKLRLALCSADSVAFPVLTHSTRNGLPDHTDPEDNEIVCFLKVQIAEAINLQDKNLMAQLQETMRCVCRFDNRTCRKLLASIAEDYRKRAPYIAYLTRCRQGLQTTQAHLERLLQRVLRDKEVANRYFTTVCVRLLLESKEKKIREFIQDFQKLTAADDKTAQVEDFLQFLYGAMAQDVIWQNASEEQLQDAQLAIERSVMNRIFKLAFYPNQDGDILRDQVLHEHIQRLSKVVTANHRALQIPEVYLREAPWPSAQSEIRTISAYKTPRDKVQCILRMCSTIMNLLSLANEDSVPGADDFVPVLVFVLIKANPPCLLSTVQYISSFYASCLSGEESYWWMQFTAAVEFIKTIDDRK
Sequence of S-adenosylmethionine synthase isoform type-2 (Homo sapiens) (P31153 whole entry, looked up, canonical isoform): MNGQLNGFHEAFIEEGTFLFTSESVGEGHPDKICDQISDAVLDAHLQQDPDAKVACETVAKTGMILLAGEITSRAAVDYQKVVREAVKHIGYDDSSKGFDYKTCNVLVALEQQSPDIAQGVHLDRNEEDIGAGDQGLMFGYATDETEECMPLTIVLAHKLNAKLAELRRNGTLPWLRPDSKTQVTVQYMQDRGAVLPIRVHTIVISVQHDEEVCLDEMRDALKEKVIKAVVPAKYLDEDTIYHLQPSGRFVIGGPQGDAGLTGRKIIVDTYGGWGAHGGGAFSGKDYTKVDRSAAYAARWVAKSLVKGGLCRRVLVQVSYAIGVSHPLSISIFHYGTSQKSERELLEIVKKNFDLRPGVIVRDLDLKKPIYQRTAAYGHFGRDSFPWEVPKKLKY
Sequence of ATP-dependent 6-phosphofructokinase, liver type (Homo sapiens) (P17858 whole entry): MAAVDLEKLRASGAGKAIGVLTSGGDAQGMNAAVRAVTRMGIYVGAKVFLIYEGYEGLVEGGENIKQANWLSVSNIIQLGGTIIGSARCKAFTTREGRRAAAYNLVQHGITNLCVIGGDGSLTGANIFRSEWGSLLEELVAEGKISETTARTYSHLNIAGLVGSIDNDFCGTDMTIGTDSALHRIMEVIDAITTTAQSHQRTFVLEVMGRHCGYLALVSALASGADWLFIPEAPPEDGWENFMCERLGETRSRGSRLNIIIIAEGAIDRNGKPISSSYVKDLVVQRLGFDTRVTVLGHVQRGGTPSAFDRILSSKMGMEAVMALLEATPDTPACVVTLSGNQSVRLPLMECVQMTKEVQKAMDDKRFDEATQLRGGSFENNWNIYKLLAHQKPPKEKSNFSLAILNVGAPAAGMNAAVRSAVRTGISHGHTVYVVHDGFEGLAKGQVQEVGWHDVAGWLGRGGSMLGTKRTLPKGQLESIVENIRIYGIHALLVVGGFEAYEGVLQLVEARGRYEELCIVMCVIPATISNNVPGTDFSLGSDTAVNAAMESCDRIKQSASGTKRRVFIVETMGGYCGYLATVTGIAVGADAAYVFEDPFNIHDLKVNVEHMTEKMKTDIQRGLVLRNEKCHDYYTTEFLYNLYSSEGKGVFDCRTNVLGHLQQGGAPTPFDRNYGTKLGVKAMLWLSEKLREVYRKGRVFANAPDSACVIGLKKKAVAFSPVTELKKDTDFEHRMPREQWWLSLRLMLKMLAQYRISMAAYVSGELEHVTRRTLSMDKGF

SMILES: Cc1ccc(C(=O)Nc2cccc(C(F)(F)F)c2)cc1Nc1nc(-c2cccnc2)nc2c1cnn2C
- ED50 [1]: 0.0049 µM
- ED50 [2]: 11.7 µM
- ED50 [3]: 14.2 µM
- ED50 [4]: 0.0376 µM
- ED50 [5]: 111 µM
- ED50 (Homo sapiens [6]): 3.75 µM
- ED50 [7]: 7.36 µM
- ED50 [8]: 7.49 µM
- ED50 [9]: 5.79 µM
- ED50 [10]: 0.0475 µM
- ED50 [11]: 116 µM
- ED50 [12]: 0.0114 µM
- ED50 [13]: 0.00551 µM
- ED50 [14]: 5.13 µM
- ED50 [15]: 0.0644 µM
- ED50 [16]: 3.14 µM
- ED50 [17]: 0.124 µM
- ED50 [18]: 4.33 µM
- ED50 [19]: 0.00895 µM
- ED50 [20]: 3.51 µM
- ED50 [21]: 4.69 µM
- ED50 [22]: 7.18 µM
- ED50 (Cullin-3 (Homo sapiens)): 0.0191 µM
- ED50 [23]: 0.000216 µM
- ED50 [24]: 0.0535 µM
- ED50 [25]: 1.92 µM
- ED50 [26]: 5.26 µM
- ED50 [27]: 224 µM
- ED50 [28]: 0.00641 µM
- ED50 [29]: 2.59 µM
- ED50 [30]: 3.01 µM
- ED50 [31]: 11.2 µM
- ED50 (Septin-9 (Homo sapiens)): 8.65 µM
- ED50 [32]: 0.97 µM
- ED50 [33]: 0.0142 µM
- ED50 [34]: 0.532 µM
- ED50 [35]: 1.06 µM
- ED50 [36]: 3.51 µM
- ED50 [37]: 0.809 µM
- ED50 [38]: 1.17 µM
- ED50 (Homo sapiens [39]): 3.14 µM
- ED50 [40]: 0.46 µM
- ED50 (Homo sapiens [41]): 2.31 µM
- ED50 [42]: 0.000546 µM
- ED50 [43]: 0.511 µM
- ED50 [44]: 0.00366 µM
- ED50 [45]: 0.577 µM

SMILES: Cc1ccc(C(=O)Nc2cccc(C(F)(F)F)c2)cc1Nc1nc(-c2cccnc2)nc2nn(C)cc12
- ED50 [1]: 12.4 µM
- ED50 [2]: 7.5 µM
- ED50 [3]: 9.32 µM
- ED50 [4]: 0.00647 µM
- ED50 [5]: 0.0338 µM
- ED50 (Homo sapiens [6]): 0.285 µM
- ED50 [7]: 9.47 µM
- ED50 [8]: 0.051 µM
- ED50 [9]: 0.0815 µM
- ED50 [10]: 3.69 µM
- ED50 [11]: 2.47 µM
- ED50 [12]: 0.000491 µM
- ED50 [13]: 0.318 µM
- ED50 [14]: 211 µM
- ED50 [15]: 0.09 µM
- ED50 [16]: 5.99 µM
- ED50 [17]: 0.0265 µM
- ED50 [18]: 0.0387 µM
- ED50 [19]: 0.806 µM
- ED50 [20]: 0.228 µM
- ED50 [21]: 113 µM
- ED50 [22]: 154 µM
- ED50 (Cullin-3 (Homo sapiens)): 1.09 µM
- ED50 [23]: 0.0516 µM
- ED50 [24]: 2.59 µM
- ED50 [25]: 1450 µM
- ED50 [26]: 0.048 µM
- ED50 [27]: 7.06 µM
- ED50 [28]: 5.32 µM
- ED50 [29]: 14.9 µM
- ED50 [30]: 0.00683 µM
- ED50 [31]: 0.0257 µM
- ED50 (Septin-9 (Homo sapiens)): 0.109 µM
- ED50 [32]: 1.3 µM
- ED50 [33]: 0.154 µM
- ED50 [34]: 0.0186 µM
- ED50 [35]: 2.04 µM
- ED50 [36]: 825 µM
- ED50 [37]: 7.34 µM
- ED50 [38]: 0.0999 µM
- ED50 (Homo sapiens [39]): 9.29 µM
- ED50 [40]: 0.203 µM
- ED50 (Homo sapiens [41]): 0.716 µM
- ED50 [42]: 0.083 µM
- ED50 [43]: 0.000132 µM
- ED50 [44]: 0.593 µM
- ED50 [45]: 8.92 µM
